Legend:
[1] = Inhibition of AMT in rat RBL-2H3 cells assessed as [14C]anandamide uptake; type: cell-based
Cannabinoid receptor 1 = Cannabinoid receptor 1 (Rattus norvegicus, UniProt P20272); experiment: Displacement of [3H]SR141716A from CB1 receptor in CD rat brain membranes; type: cell membranes, Membrane
[2] = Toxicity in Artemia salina after 24 hrs; type: organism-based; details: in vivo, read-out: LD50

Cannabinoid receptor 1, sequence (P20272 whole entry): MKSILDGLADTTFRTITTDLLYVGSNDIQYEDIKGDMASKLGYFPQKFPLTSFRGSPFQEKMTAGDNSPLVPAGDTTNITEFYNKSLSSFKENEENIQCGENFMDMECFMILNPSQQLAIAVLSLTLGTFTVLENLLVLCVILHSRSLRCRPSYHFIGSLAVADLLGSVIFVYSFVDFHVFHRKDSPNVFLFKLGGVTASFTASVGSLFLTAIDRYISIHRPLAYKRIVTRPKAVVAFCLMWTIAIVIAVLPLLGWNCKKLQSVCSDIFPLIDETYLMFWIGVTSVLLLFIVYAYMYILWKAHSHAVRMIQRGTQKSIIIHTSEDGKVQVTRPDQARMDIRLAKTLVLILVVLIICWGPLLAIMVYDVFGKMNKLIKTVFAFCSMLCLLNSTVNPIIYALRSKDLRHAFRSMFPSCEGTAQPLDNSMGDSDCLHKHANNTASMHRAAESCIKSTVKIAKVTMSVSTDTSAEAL

| SMILES | IC50 [1] | Ki (Cannabinoid receptor 1) | LC50 at 24 h [2] |
| --- | --- | --- | --- |
| CCCCCCCCCCCCC/C=C/CC/C=C(\C)C(=O)NCCO [SEMIPLENAMIDE A] | 18.1 µM | 19.5 µM | 1.4 µM |
| CCCCCCCCCCCCC/C=C/CC/C=C(\C)C(=O)NCCOC(C)=O [SEMIPLENAMIDE B] | – | 18.7 µM | 2.5 µM |
| CCCCCCCCCCCCC/C=C(\C)C(=O)N[C@@H](C)CO [SEMIPLENAMIDE C] | – | – | 1.5 µM |
| CCCCCCCCCCCCCCCCC/C=C(\C)C(=O)N[C@@H](C)COC(C)=O [SEMIPLENAMIDE D] | – | – | 18 µM |
| CCCCCCCCCCCCCCC/C=C(\C)C(=O)N[C@@H](C)COC(C)=O [SEMIPLENAMIDE E] | – | – | 19 µM |
| CCCCCCCCCCCCCCC[C@H]1O[C@]1(C)C(=O)NC(C)CO (stereo partly specified) [SEMIPLENAMIDE F] | – | – | 1.4 µM |
| CCCCCCCCCCCCCCC[C@H]1O[C@]1(C)C(=O)NC(C)COC(C)=O (stereo partly specified) [SEMIPLENAMIDE G] | – | 17.9 µM | 2.4 µM |

Source: ChEMBL document CHEMBL1147236, “Semiplenamides A-G, fatty acid amides from a Papua New Guinea collection of the marine cyanobacterium Lyngbya semiplena” (J Nat Prod, 2003)
